For orientation: IC50 means the point on the concentration scale where inhibition reaches its midpoint.

Experiment [1] addresses T1, BCAT2 (Homo sapiens, UniProt O15382).
T1 sequence (O15382 28-392): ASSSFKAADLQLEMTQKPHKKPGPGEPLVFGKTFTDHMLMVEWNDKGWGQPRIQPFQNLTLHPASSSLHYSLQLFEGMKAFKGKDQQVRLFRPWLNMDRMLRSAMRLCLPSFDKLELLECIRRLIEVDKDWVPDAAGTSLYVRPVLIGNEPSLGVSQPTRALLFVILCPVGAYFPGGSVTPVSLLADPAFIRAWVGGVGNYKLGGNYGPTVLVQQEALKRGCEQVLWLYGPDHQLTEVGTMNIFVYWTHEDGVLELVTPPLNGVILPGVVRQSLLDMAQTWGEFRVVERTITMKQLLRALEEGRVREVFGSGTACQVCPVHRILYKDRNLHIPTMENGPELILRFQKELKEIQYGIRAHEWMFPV
The experiment in a line: BCAT2 in vitro enzyme inhibition assay (hBCAT2, glutamate dehydrogenase/diaphorase/resazurin coupled fluorescence read). Format: biochemical. The note with it: hBCAT2, 1 h preincubation at 25° C., one hour reaction; average where tested multiple times. The gist of the method:
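Coupled GDH/diaphorase/resazurin fluorescence (Ex 540/Em 590) read after 1 h reaction at 25 °C, SDS-stopped; enzyme (0.33 μg/mL in mix) first preincubated 1 h with compound, 10-point 3-fold series from 100 μM final, Tris pH 8.0 buffer with NaCl, BSA; technical duplicates, averaged across tests.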
On the technique in general: Resazurin is reduced to fluorescent resorufin, in cell work by metabolically active cells.

The target in experiment [2] is T1, BCAT2. The experiment in a line: BCAT2 cell inhibition using engineered A549 cells (MUT KO, BCAT1 KO; 13C6-KMV formation by LC-MS/MS). Format: cell-based. Also on record: expressed endogenous BCAT2; endogenous in cells; host or cells: A549 cells, MUT knockout and BCAT1 knockout. In a few lines:
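Medium 13C6-KMV formation is read by LC-MS/MS after PFBHA derivatization with d8-KMV internal standard. Cells are CRISPR MUT/BCAT1 double-knockout A549 expressing endogenous BCAT2, given compound 15 min before labelled isoleucine (800 uM, added 1:1) for 24 h. CTG viability run in parallel; replicates averaged.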

[3] abbreviates: read-out: BCAT2 Cell Inhibition (IC50), engineered A549 cells, 24 hours, 13C6-KMV in media, average where tested multiple times.

Regarding `CO[C@H]1C[C@H](NC(=O)c2cc(Cl)ccc2OCCO)C[C@H](n2c(-c3ccccc3F)nc3cnc(-c4nc[nH]n4)cc32)C1` [Example 119, 5-chloro-N-((1R,3S,5S)-3-(2-(2-fluorophenyl)-6-(1H-1,2,4-triazol-3-yl)-1H-imidazo[4,5-c]pyridin-1-yl)-5-methoxycyclohexyl)-2-(2-hydroxyethoxy)benzamide], the concentration for half-maximal inhibition (IC50) at BCAT2 [1] and on BCAT2 [2] was below 0.1 µM each time.
In the case of `CO[C@H]1C[C@H](NC(=O)c2cc(F)ccc2F)C[C@H](n2c(-c3ccccc3F)nc3cnc(-c4nc[nH]n4)cc32)C1` [Example 122, 2,5-difluoro-N-((1R,3S,5S)-3-(2-(2-fluorophenyl)-6-(1H-1,2,4-triazol-3-yl)-1H-imidazo[4,5-c]pyridin-1-yl)-5-methoxycyclohexyl)benzamide], the half-inhibitory concentration (IC50) against BCAT2 [1] and on BCAT2 [2] was below 0.1 µM throughout.
For `CCOc1ccc(Cl)cc1C(=O)N[C@H]1CCC[C@@H](n2c(-c3ccccn3)nc3cnc(-c4nc[nH]n4)cc32)C1` [Example 26, 5-chloro-2-ethoxy-N-((1S,3R)-3-(2-(pyridin-2-yl)-6-(1H-1,2,4-triazol-3-yl)-1H-imidazo[4,5-c]pyridin-1-yl)cyclohexyl)benzamide], the half-maximal inhibitory concentration (IC50) at BCAT2 [1] is below 0.1 µM; on BCAT2 [2], 0.1 to 0.5 µM.
For `O=C(N[C@H]1CCC[C@@H](n2c(-c3ccccc3F)nc3cnc(-c4nc[nH]n4)cc32)C1)c1cc(Cl)ccc1OCCO` [Example 34, 5-chloro-N-((1S,3R)-3-(2-(2-fluorophenyl)-6-(1H-1,2,4-triazol-3-yl)-1H-imidazo[4,5-c]pyridin-1-yl)cyclohexyl)-2-(2-hydroxyethoxy)benzamide], in that order: below 0.1 µM and below 0.1 µM.
The matching figures for `COc1ccc(Cl)cc1C(=O)N[C@H]1CCC[C@@H](n2c(-c3ccccc3F)nc3cnc(-c4nc[nH]n4)cc32)[C@@H]1O` [Example 102, 5-chloro-N-((1S,2R,3R)-3-(2-(2-fluorophenyl)-6-(1H-1,2,4-triazol-3-yl)-1H-imidazo[4,5-c]pyridin-1-yl)-2-hydroxycyclohexyl)-2-methoxybenzamide]: below 0.1 µM and below 0.1 µM.
For `CCOc1ncc(Cl)cc1C(=O)N[C@H]1CCC[C@@H](n2c(-c3ccccc3F)nc3cnc(-c4nc[nH]n4)cc32)C1` [Example 23, 5-chloro-2-ethoxy-N-((1S,3R)-3-(2-(2-fluorophenyl)-6-(1H-1,2,4-triazol-3-yl)-1H-imidazo[4,5-c]pyridin-1-yl)cyclohexyl)nicotinamide], in that order: below 0.1 µM and below 0.1 µM.
Regarding `O=C1c2cc(Cl)ccc2CN1[C@H]1CCC[C@@H](n2c(-c3ccccc3F)nc3cnc(-c4nc[nH]n4)cc32)[C@@H]1O` [Example 183, 6-chloro-2-((1S,2S,3R)-3-(2-(2-fluorophenyl)-6-(1H-1,2,4-triazol-3-yl)-1H-imidazo[4,5-c]pyridin-1-yl)-2-hydroxycyclohexyl)isoindolin-1-one], the half-inhibitory concentration (IC50) at BCAT2 [1] and on BCAT2 [2] was below 0.1 µM in each case.
`O=C1c2cc(F)ccc2CN1[C@H]1CCC[C@@H](n2c(-c3ccccc3OC(F)F)nc3cnc(-c4nc[nH]n4)cc32)[C@@H]1O` [compound 188]: the IC50 against BCAT2 [1] was below 0.1 µM; on BCAT2 [2], 0.1 to 0.5 µM.
Regarding `O=C(N[C@H]1CCC[C@@H](n2c(-c3ncccc3F)nc3cnc(-c4nc[nH]n4)cc32)C1)c1cc(F)ccc1F` [Example 80, 2,5-difluoro-N-((1S,3R)-3-(2-(3-fluoropyridin-2-yl)-6-(1H-1,2,4-triazol-3-yl)-1H-imidazo[4,5-c]pyridin-1-yl)cyclohexyl)benzamide], the IC50 against BCAT2 [1] was below 0.1 µM; at BCAT2 [2], 0.1 to 0.5 µM.
For `N#Cc1ccc(F)cc1C(=O)N[C@H]1CCC[C@@H](n2c(-c3ccccc3F)nc3cnc(-c4nc[nH]n4)cc32)C1` [Example 98, 2-cyano-5-fluoro-N-((1S,3R)-3-(2-(2-fluorophenyl)-6-(4H-1,2,4-triazol-3-yl)-1H-imidazo[4,5-c]pyridin-1-yl)cyclohexyl)benzamide], in that order: below 0.1 µM and below 0.1 µM.
For `O=C1c2cc(F)ccc2CN1[C@H]1CCC[C@@H](n2c(-c3ccccc3OC(F)F)nc3cnc(-c4nc[nH]n4)cc32)C1` [compound 180], in that order: below 0.1 µM and below 0.1 µM.
For `O=C1c2cc(Cl)ccc2NCN1[C@H]1CCC[C@@H](n2c(-c3ccccc3F)nc3cnc(-c4nc[nH]n4)cc32)C1` [Example 206, 6-chloro-3-((1S,3R)-3-(2-(2-fluorophenyl)-6-(1H-1,2,4-triazol-3-yl)-1H-imidazo[4,5-c]pyridin-1-yl)cyclohexyl)-2,3-dihydroquinazolin-4(1H)-one], in that order: below 0.1 µM and below 0.1 µM.
`COc1ncc(Cl)cc1C(=O)N[C@H]1CCC[C@@H](n2c(-c3ccccc3F)nc3cnc(-c4nc[nH]n4)cc32)C1` [Example 22, 5-chloro-N-((1S,3R)-3-(2-(2-fluorophenyl)-6-(1H-1,2,4-triazol-3-yl)-1H-imidazo[4,5-c]pyridin-1-yl)cyclohexyl)-2-methoxynicotinamide]: the 50% inhibitory concentration (IC50) at BCAT2 [1] and on BCAT2 [2] was below 0.1 µM throughout.
For the compound `CO[C@H]1C[C@H](NC(=O)c2cc(Cl)ccn2)C[C@H](n2c(CC(C)C)nc3cnc(-c4ncccn4)cc32)C1` [Example 117, 4-chloro-N-((1R,3S,5S)-3-(2-isobutyl-6-(pyrimidin-2-yl)-1H-imidazo[4,5-c]pyridin-1-yl)-5-methoxycyclohexyl)picolinamide], the IC50 against BCAT2 [1] was below 0.1 µM; against BCAT2 [2] it was 0.5 to 1 µM.
The matching figures for `O=C1c2cc(F)ccc2OCN1[C@H]1CCC[C@@H](n2c(-c3ccccc3F)nc3cnc(-c4nc[nH]n4)cc32)C1` [Example 204, 6-fluoro-3-((1S,3R)-3-(2-(2-fluorophenyl)-6-(1H-1,2,4-triazol-3-yl)-1H-imidazo[4,5-c]pyridin-1-yl)cyclohexyl)-2,3-dihydro-4H-benzo[e][1,3]oxazin-4-one]: below 0.1 µM and below 0.1 µM.
For `O=C1c2cc(F)ccc2CCN1[C@H]1CCC[C@@H](n2c(-c3ccccc3F)nc3cnc(-c4nc[nH]n4)cc32)C1` [Example 212, 7-fluoro-2-((1S,3R)-3-(2-(2-fluorophenyl)-6-(1H-1,2,4-triazol-3-yl)-1H-imidazo[4,5-c]pyridin-1-yl)cyclohexyl)-3,4-dihydroisoquinolin-1(2H)-one], in that order: below 0.1 µM and below 0.1 µM.
For `CC(C)Oc1ccc(Cl)cc1C(=O)N[C@H]1CCC[C@@H](n2c(-c3ccccc3F)nc3cnc(-c4nc[nH]n4)cc32)C1` [Example 18, 5-chloro-N-((1S,3R)-3-(2-(2-fluorophenyl)-6-(1H-1,2,4-triazol-3-yl)-1H-imidazo[4,5-c]pyridin-1-yl)cyclohexyl)-2-isopropoxybenzamide], in that order: below 0.1 µM and below 0.1 µM.
`COc1ccc(Cl)cc1C(=O)N[C@@H]1C[C@H](n2c(-c3ncccc3F)nc3cnc(-c4nc[nH]n4)cc32)CN(C)C1` [Example 137, 5-chloro-N-((3R,5S)-5-(2-(3-fluoropyridin-2-yl)-6-(1H-1,2,4-triazol-3-yl)-1H-imidazo[4,5-c]pyridin-1-yl)-1-methylpiperidin-3-yl)-2-methoxybenzamide]: the IC50 was 0.1 to 0.5 µM against BCAT2 [1] and above 1 µM on BCAT2 [2] (setting [3]).
On to `O=C1c2c(ccc(F)c2F)CN1[C@H]1CCC[C@@H](n2c(-c3ccccc3F)nc3cnc(-c4nc[nH]n4)cc32)C1` [Example 178, 6,7-difluoro-2-((1S,3R)-3-(2-(2-fluorophenyl)-6-(1H-1,2,4-triazol-3-yl)-1H-imidazo[4,5-c]pyridin-1-yl)cyclohexyl)isoindolin-1-one], for which the IC50 against BCAT2 [1] and at BCAT2 [2] was below 0.1 µM in each case.
For the compound `CO[C@@H]1C[C@H](NC(=O)c2cc(F)ccn2)C[C@H](n2c(-c3ccccc3F)nc3cnc(-c4nc[nH]n4)cc32)C1` [Example 114, 4-fluoro-N-((1R,3S,5R)-3-(2-(2-fluorophenyl)-6-(1H-1,2,4-triazol-3-yl)-1H-imidazo[4,5-c]pyridin-1-yl)-5-methoxycyclohexyl)picolinamide], the IC50 on BCAT2 [1] and at BCAT2 [2] was below 0.1 µM throughout.
As to `COc1ccc(Cl)cc1C(=O)N[C@@H]1CCCC[C@H](n2c(-c3ccccc3F)nc3cnc(-c4nc[nH]n4)cc32)[C@H]1O` [Example 104, 5-chloro-N-((1R,2S,3S)-3-(2-(2-fluorophenyl)-6-(1H-1,2,4-triazol-3-yl)-1H-imidazo[4,5-c]pyridin-1-yl)-2-hydroxycycloheptyl)-2-methoxybenzamide], the IC50 was 0.5 to 1 µM against BCAT2 [1] and above 1 µM on BCAT2 [2] (setting [3]).

The values are drawn from patent publication US20260334439A1, “BCAT2 INHIBITORS” (Agios Pharmaceuticals, Inc., priority 2023, published 2026).
